Drawing on patent US20250326748A1, “COMPOUNDS AND METHODS FOR MODULATING SPLICING” (REMIX THERAPEUTICS INC., priority 2022, published 2025), this text covers IC50 and AC50 for 15 compounds.

Where a name gives a salt, the structure may show the parent alone. Read-outs that look alike come from different tables or passages of the source.

Holding throughout (assay type): cell-based, human
One assay has as its system Target C mRNA. The assay can be described thus: Splicing RT-qPCR panel, Target C canonical junction (CJ) mRNA. To be noted: read-out: Target C CJ (decrease in CJ mRNA levels, IC50). An outline of the steps: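 A673 cells (DMEM, 10% FBS) or K562 cells (IMDM, 10% FBS) treated 24 h at 37 °C with an 11-point 3-fold dilution, top 10 uM, DMSO ≤0.25%. Canonical-junction mRNA quantified in lysates by RT-qPCR, normalised to GAPDH, GUSB or PPIA and to DMSO (2^−ΔΔCt), then converted to % response.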
On the technique in general: In qPCR the cycle at which signal appears reflects the starting amount.

For another assay, the system named is HTT mRNA. The assay can be described thus: Splicing RT-qPCR assay, HTT canonical (CJ) and alternative (AJ) junction mRNA. To be noted: Homo sapiens; for IC50: canonical junction mRNA; for AC50: alternative junction mRNA, read-out: HTT AJ (AC50, increase in AJ mRNA). An outline of the steps:
(§1)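 Treatment of A673 or K562 cultures with compounds (eleven-point titration, highest final 10 uM, ≤0.25% DMSO) ran one day at 37 °C. Afterwards cells were lysed directly in the well, and cDNA synthesis coupled with qPCR measured CJ and AJ isoform levels against a reference transcript.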

In a further assay the test system is MYB mRNA. Put plainly: Splicing RT-qPCR assay, MYB canonical (CJ) and alternative (AJ) junction mRNA. To be noted: Homo sapiens; for IC50: canonical junction mRNA; for AC50: alternative junction mRNA, read-out: MYB AJ (AC50, increase in AJ mRNA). An outline of the steps:
as §1

[1] abbreviates: 24 h, RT-qPCR, A673 or K562 cells, 24 hours treatment, read-out: HTT CJ (IC50, decrease in CJ mRNA).
Where [2] appears, read: qPCR panel, read-out: HTT CJ (decrease in CJ mRNA levels, IC50).
Where [3] appears, read: RT-qPCR, A673 or K562 cells, 24 hours treatment.
The mark [4] stands for this setting: qPCR panel, read-out: MYB CJ (decrease in CJ mRNA levels, IC50).
The mark [5] stands for this setting: RT-qPCR, A673 or K562 cells, 24 hours treatment, read-out: MYB CJ (IC50, decrease in CJ mRNA).

Usually IC50 stands for the midpoint of a concentration-inhibition curve. The term AC50 denotes the concentration giving half of the maximal activity seen. Regarding `CN[C@@H]1CN(c2cnc3nc(-c4cc5cn(C)nc5c(C)c4O)ccc3c2)C[C@@H]1C` [Compound 128], the IC50 in the assay with Target C mRNA (Homo sapiens) was 0.1 to 1 µM; with HTT mRNA (setting [1]), 0.1 to 1 µM; in the assay with HTT mRNA (setting [2]), 0.1 to 1 µM; with MYB mRNA (setting [4]) it was below 0.1 µM; in the assay on MYB mRNA (setting [5]) it was below 0.1 µM. Besides, the AC50 in the assay with HTT mRNA (setting [3]) and in the assay with MYB mRNA (setting [3]) was 0.1 to 1 µM throughout.

As for `CN[C@H]1CN(c2cnc3nc(-c4cc5cn(C)nc5c(C)c4O)ccc3c2)C[C@H]1F` [Compound 129, 5-{6-[(3R,4S)-3-fluoro-4-(methylamino)pyrrolidin-1-yl]-1,8-naphthyridin-2-yl}-2,7-dimethylindazol-6-ol], the IC50 in the assay on Target C mRNA (Homo sapiens), with HTT mRNA (setting [1]), in the assay with HTT mRNA (setting [2]), in the assay on MYB mRNA (setting [4]) and in the assay on MYB mRNA (setting [5]) was 0.1 to 1 µM each time. Further, the AC50 in the assay with HTT mRNA (setting [3]) and in the assay with MYB mRNA (setting [3]) was 0.1 to 1 µM in each case.

Turning to `CN[C@@H]1CN(c2cnc3nc(-c4cc5cn(C)nc5c(C)c4O)ccc3c2)C[C@@H]1F` [Compound 132, 5-{6-[(3S,4R)-3-fluoro-4-(methylamino)pyrrolidin-1-yl]-1,8-naphthyridin-2-yl}-2,7-dimethylindazol-6-ol], the IC50 in the assay on Target C mRNA (Homo sapiens), in the assay with HTT mRNA (setting [1]), in the assay with HTT mRNA (setting [2]), in the assay with MYB mRNA (setting [4]) and in the assay with MYB mRNA (setting [5]) was 0.1 to 1 µM each time. The AC50 with HTT mRNA (setting [3]) was 0.1 to 1 µM; in the assay with MYB mRNA (setting [3]), below 0.1 µM.

Take `Cn1cc2cc(-c3cnc4nc(N5CCC(NC(C)(C)C)C5)ccc4c3)c(O)cc2n1` (stereo not drawn) [Compound 133, 5-{7-[3-(tert-butylamino)pyrrolidin-1-yl]-1,8-naphthyridin-3-yl}-2-methylindazol-6-ol]: the IC50 in the assay with Target C mRNA (Homo sapiens) was above 10 µM; in the assay with HTT mRNA (setting [1]), 1 to 10 µM; in the assay on HTT mRNA (setting [2]), 1 to 10 µM; in the assay with MYB mRNA (setting [4]), above 10 µM; in the assay on MYB mRNA (setting [5]) it was above 10 µM. For the same compound, the AC50 in the assay on HTT mRNA (setting [3]) and with MYB mRNA (setting [3]) was above 10 µM throughout.

`Cn1cc2cc(-c3ccc4cc(N5CCC(NC(C)(C)C)C5)cnc4n3)c(O)cc2n1` (stereo not drawn) [Compound 134, 5-{6-[3-(tert-butylamino)pyrrolidin-1-yl]-1,8-naphthyridin-2-yl}-2-methylindazol-6-ol hydrochloride]: the half-inhibitory concentration (IC50) in the assay on Target C mRNA (Homo sapiens), in the assay with HTT mRNA (setting [1]), in the assay on HTT mRNA (setting [2]), in the assay on MYB mRNA (setting [4]) and in the assay with MYB mRNA (setting [5]) was 0.1 to 1 µM throughout. Also, the half-maximal activity concentration (AC50) with HTT mRNA (setting [3]) and with MYB mRNA (setting [3]) was 0.1 to 1 µM throughout.

With `Cn1cc2cc(-c3ccc4cc(N5CC[C@@H](NCC6CC6)C5)cnc4n3)c(O)c(F)c2n1` [Compound 135, 5-{6-[(3R)-3-[(cyclopropylmethyl)amino]330pyrrolidine-1-yl]-1,8-naphthyridin-2-yl}-7-fluoro-2-methylindazol-6-ol], the IC50 in the assay on Target C mRNA (Homo sapiens) is 0.1 to 1 µM; in the assay on HTT mRNA (setting [1]) it was below 0.1 µM; in the assay with HTT mRNA (setting [2]), below 0.1 µM; with MYB mRNA (setting [4]), below 0.1 µM; in the assay on MYB mRNA (setting [5]), below 0.1 µM. Besides, the AC50 with HTT mRNA (setting [3]) and in the assay with MYB mRNA (setting [3]) was below 0.1 µM throughout.

As to `Cn1cc2cc(-c3ccc4cc(N5CC[C@H](NCC6CC6)C5)cnc4n3)c(O)c(F)c2n1` [Compound 136, 5-{6-[(3S)-3-[(cyclopropylmethyl)amino]326pyrrolidine-1-yl]-1,8-naphthyridin-2-yl}-7-fluoro-2-methylindazol-6-ol], the IC50 in the assay on Target C mRNA (Homo sapiens) lay within 1 to 10 µM; in the assay with HTT mRNA (setting [1]), 0.1 to 1 µM; in the assay with HTT mRNA (setting [2]) it was 0.1 to 1 µM; in the assay with MYB mRNA (setting [4]) it was 0.1 to 1 µM; in the assay with MYB mRNA (setting [5]), 0.1 to 1 µM. Further, the AC50 in the assay with HTT mRNA (setting [3]) was 0.1 to 1 µM; with MYB mRNA (setting [3]), below 0.1 µM.

Turning to `Cc1c(O)c(-c2ccc3cc(N4CCNCC4)cnc3n2)cc2cn(C)nc12` [Compound 137, 2,7-dimethyl-5-[6-(piperazin-1-yl)-1,8-naphthyridin-2-yl]indazol-6-ol], the IC50 in the assay on Target C mRNA (Homo sapiens) was 0.1 to 1 µM; with HTT mRNA (setting [1]) it was 0.1 to 1 µM; with HTT mRNA (setting [2]) it was 0.1 to 1 µM; with MYB mRNA (setting [4]), below 0.1 µM; in the assay on MYB mRNA (setting [5]), below 0.1 µM. Also, the AC50 in the assay on HTT mRNA (setting [3]) is 0.1 to 1 µM; in the assay with MYB mRNA (setting [3]), below 0.1 µM.

Regarding `Cc1c(O)c(-c2ccc3cc(N4CCC(N(C)C)CC4)cnc3n2)cc2cn(C)nc12` [Compound 138, 5-{6-[4-(dimethylamino)piperidin-1-yl]-1,8-naphthyridin-2-yl}-2,7-dimethylindazol-6-ol], the IC50 was 1 to 10 µM with Target C mRNA (Homo sapiens); 0.1 to 1 µM in the assay on HTT mRNA (setting [1]); 0.1 to 1 µM in the assay on HTT mRNA (setting [2]); 0.1 to 1 µM in the assay on MYB mRNA (setting [4]); 0.1 to 1 µM in the assay with MYB mRNA (setting [5]). The results for the half-maximal activity concentration (AC50) in the assay on HTT mRNA (setting [3]) and with MYB mRNA (setting [3]) were 1 to 10 µM and 0.1 to 1 µM, respectively.

For the compound `CNC1CCN(c2cnc3nc(-c4cc5cn(C)nc5c(C)c4O)cc(Cl)c3c2)C1` (stereo not drawn) [Compound 142, 5-{4-chloro-6-[3-(methylamino)351pyrrolidine-1-yl]-1,8-naphthyridin-2-yl}-2,7-dimethylindazol-6-ol], the half-maximal inhibitory concentration (IC50) was 0.1 to 1 µM in the assay with Target C mRNA (Homo sapiens); below 0.1 µM with HTT mRNA (setting [1]); below 0.1 µM in the assay with HTT mRNA (setting [2]); below 0.1 µM in the assay on MYB mRNA (setting [4]); below 0.1 µM in the assay with MYB mRNA (setting [5]). Moreover, the values for the AC50 with HTT mRNA (setting [3]) and in the assay on MYB mRNA (setting [3]) were 0.1 to 1 µM and below 0.1 µM, respectively.

Turning to `Cc1c(O)c(-c2cc(Cl)c3cc(N4CCC(N(C)C)C4)cnc3n2)cc2cn(C)nc12` (stereo not drawn) [Compound 143, 5-{4-chloro-6-[3-(dimethylamino)357pyrrolidine-1-yl]-1,8-naphthyridin-2-yl}-2,7-dimethylindazol-6-ol], the IC50 is 0.1 to 1 µM in the assay with Target C mRNA (Homo sapiens); 0.1 to 1 µM with HTT mRNA (setting [1]); 0.1 to 1 µM in the assay with HTT mRNA (setting [2]); below 0.1 µM in the assay with MYB mRNA (setting [4]); below 0.1 µM with MYB mRNA (setting [5]). Besides, the AC50 is 0.1 to 1 µM with HTT mRNA (setting [3]) and below 0.1 µM with MYB mRNA (setting [3]).

On to `Cc1c(O)c(-c2cc(C3CC3)c3cc(N4CCNCC4)cnc3n2)cc2cn(C)nc12` [Compound 144, 5-(4-cyclopropyl-6-(piperazin-1-yl)-1,8-naphthyridin-2-yl)-2,7-dimethyl-2H-indazol-6-ol bis(2,2,2-trifluoroacetate)], for which the IC50 with Target C mRNA (Homo sapiens) lay within 1 to 10 µM; in the assay on HTT mRNA (setting [1]), 0.1 to 1 µM; in the assay with HTT mRNA (setting [2]) it was 0.1 to 1 µM; in the assay with MYB mRNA (setting [4]), 0.1 to 1 µM; in the assay on MYB mRNA (setting [5]) it was 0.1 to 1 µM. Besides, the AC50 in the assay with HTT mRNA (setting [3]) and with MYB mRNA (setting [3]) was 0.1 to 1 µM in each case.

Turning to `Cc1c(O)c(-c2cc(Cl)c3cc(NC4CCNC4)cnc3n2)cc2cn(C)nc12` (stereo not drawn) [Compound 146, 5-[4-chloro-6-(359pyrrolidine-3-ylamino)-1,8-naphthyridin-2-yl]-2,7-dimethylindazol-6-ol], the half-inhibitory concentration (IC50) with Target C mRNA (Homo sapiens) fell in the range of 1 to 10 µM; in the assay on HTT mRNA (setting [1]), 0.1 to 1 µM; in the assay with HTT mRNA (setting [2]), 0.1 to 1 µM; with MYB mRNA (setting [4]), 0.1 to 1 µM; with MYB mRNA (setting [5]) it was 0.1 to 1 µM. For the same compound, the AC50 in the assay with HTT mRNA (setting [3]) is 0.1 to 1 µM; in the assay on MYB mRNA (setting [3]), below 0.1 µM.

Regarding `Cc1c(O)c(-c2cc(Cl)c3cc(N4CCNC(C)C4)cnc3n2)cc2cn(C)nc12` (stereo not drawn) [Compound 147], the IC50 with Target C mRNA (Homo sapiens) lay in the range of 1 to 10 µM; with HTT mRNA (setting [1]) it was 0.1 to 1 µM; with HTT mRNA (setting [2]) it was 0.1 to 1 µM; with MYB mRNA (setting [4]), 0.1 to 1 µM; with MYB mRNA (setting [5]), 0.1 to 1 µM. The AC50 with HTT mRNA (setting [3]) and in the assay with MYB mRNA (setting [3]) was 0.1 to 1 µM in each case.

For the compound `Cc1c(O)c(-c2cc(Cl)c3cc(N4C[C@@H](C)N[C@@H](C)C4)cnc3n2)cc2cn(C)nc12` [Compound 149], the IC50 is 1 to 10 µM with Target C mRNA; 0.1 to 1 µM with HTT mRNA (setting [1]); 0.1 to 1 µM in the assay with HTT mRNA (setting [2]); below 0.1 µM in the assay on MYB mRNA (setting [4]); below 0.1 µM in the assay on MYB mRNA (setting [5]). Further, the figures for the AC50 in the assay on HTT mRNA (setting [3]) and in the assay with MYB mRNA (setting [3]) were 0.1 to 1 µM and below 0.1 µM, respectively.
